Experimental data taken from patent US12479844B2, “Ion channel modulators” (Praxis Precision Medicines, Inc., priority 2018, dated 2025).

molecular target: T1, human NaV1.6 (hNaV1.6) (Homo sapiens, UniProt Q9UQD0); assay: Modulation of late sodium current (INaL), PatchXpress high throughput electrophysiology; assay type: cell-based; conditions: HEK293, HEK-293 cells expressing recombinant human NaV1.6, late current evoked by 300 nM ATX-II, read-out: NaV 1.6 Assay Data (percent inhibition of INaL at hNaV1.6)
T1 construct: expressed in transfected cells; host or cells: HEK-293
T1 sequence (Q9UQD0 whole entry): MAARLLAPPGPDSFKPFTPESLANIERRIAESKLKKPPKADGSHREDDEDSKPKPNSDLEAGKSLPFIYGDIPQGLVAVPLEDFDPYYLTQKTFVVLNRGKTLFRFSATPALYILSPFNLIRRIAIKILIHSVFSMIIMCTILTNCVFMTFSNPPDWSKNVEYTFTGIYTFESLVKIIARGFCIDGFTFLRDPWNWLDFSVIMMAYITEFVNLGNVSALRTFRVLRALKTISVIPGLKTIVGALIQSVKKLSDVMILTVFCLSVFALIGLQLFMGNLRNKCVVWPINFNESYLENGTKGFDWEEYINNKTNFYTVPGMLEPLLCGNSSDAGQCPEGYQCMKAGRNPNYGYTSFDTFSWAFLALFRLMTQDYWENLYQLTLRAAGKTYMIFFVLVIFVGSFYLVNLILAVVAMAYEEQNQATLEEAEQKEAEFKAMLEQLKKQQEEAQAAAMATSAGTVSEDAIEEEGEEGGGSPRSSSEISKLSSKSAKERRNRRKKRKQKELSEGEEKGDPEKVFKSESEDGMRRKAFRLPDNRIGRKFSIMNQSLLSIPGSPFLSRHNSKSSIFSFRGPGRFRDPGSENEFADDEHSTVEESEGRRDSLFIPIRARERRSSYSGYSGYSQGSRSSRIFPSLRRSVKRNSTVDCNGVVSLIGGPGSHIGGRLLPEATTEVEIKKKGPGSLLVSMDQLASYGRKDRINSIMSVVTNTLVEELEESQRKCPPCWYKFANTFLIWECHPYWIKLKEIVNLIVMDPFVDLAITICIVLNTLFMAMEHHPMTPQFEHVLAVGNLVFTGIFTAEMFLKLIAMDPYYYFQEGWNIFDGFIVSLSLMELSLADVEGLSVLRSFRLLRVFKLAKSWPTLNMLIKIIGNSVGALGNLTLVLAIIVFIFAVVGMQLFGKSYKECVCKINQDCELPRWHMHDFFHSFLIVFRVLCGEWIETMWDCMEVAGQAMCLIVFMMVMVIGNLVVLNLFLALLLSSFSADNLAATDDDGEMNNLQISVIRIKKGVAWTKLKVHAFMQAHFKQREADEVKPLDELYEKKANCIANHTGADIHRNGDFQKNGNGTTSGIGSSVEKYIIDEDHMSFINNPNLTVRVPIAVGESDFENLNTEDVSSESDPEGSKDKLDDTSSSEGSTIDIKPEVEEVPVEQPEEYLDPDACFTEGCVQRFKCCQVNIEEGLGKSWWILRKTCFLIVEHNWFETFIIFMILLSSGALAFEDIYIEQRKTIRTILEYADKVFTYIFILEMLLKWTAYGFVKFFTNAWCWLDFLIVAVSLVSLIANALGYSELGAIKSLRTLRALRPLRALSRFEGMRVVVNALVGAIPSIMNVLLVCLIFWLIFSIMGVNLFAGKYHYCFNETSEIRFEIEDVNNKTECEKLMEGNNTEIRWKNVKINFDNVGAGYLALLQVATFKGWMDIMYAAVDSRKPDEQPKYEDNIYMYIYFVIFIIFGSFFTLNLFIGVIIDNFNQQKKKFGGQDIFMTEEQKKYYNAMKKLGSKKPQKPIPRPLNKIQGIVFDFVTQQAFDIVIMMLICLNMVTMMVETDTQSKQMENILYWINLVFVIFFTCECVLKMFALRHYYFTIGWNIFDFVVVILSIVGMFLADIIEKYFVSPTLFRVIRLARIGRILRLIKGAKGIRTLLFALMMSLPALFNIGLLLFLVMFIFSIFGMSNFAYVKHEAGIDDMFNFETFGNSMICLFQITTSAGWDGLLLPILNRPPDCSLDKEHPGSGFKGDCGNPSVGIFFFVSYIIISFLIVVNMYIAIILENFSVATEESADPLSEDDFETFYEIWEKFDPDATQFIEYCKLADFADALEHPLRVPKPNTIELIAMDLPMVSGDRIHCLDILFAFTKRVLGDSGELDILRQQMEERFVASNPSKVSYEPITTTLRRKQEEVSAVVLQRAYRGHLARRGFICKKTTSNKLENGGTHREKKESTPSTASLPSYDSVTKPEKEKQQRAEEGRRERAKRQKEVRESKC
Procedure: Functional characterization of exemplary compounds to modulate INaL expressed by the NaV1.6 voltage-gated sodium channel was accomplished using the PatchXpress™ high throughput electrophysiology platform (Molecular Devices, Sunnyvale, CA). HEK-293 cells expressing recombinant, human NaV1.6 (hNaV1.6) were grown in DMEM/high-glucose Dulbecco's modified, 10% FBS, 2 mM sodium pyruvate, 10 mM HEPES and 400 μg/mL G418. Cells were grown to 50%-80% confluency prior to harvesting. Trypsinized cells were washed, allowed to recover for 1 hour and then resuspended in extracellular recording solution at a concentration of 1×10^6 cells/ml. The onboard liquid handling facility of the PatchXpress was used for dispensing cells and applying test compounds. NaV late currents were evoked by the application of 300 nM ATX-II. INaL was evoked by depolarizing pulses to 0 mV for 200 ms from a non-inactivating holding potential (e.g., −120 mV) at a frequency of 0.1 Hz. INaL amplitude and stability were determined by analyzing the mean current amplitude over the final 20 ms of thetest pulse. Following steady state block with exemplary compounds (e.g., as described herein), a Na+ free solution containing an impermeant cation (e.g., Choline or NDMG) was added to confirm the identify of the sodium current. Percent steady-state inhibition of INaL was calculated as: [(INaL_compound)/(INaL_control)]*100, where INaL_compound and INaL_control represent INaL recorded in the presence or absence of compound, respectively.

CCOC(F)(F)c1nnc2cnc(-c3ccc(OC(C)C)cc3)cn12 [Compound 25, 3-(ethoxydifluoromethyl)-6-(4-isopropoxyphenyl)-[1,2,4]triazolo[4,3-a]pyrazine] and CCOC(F)(F)c1nnc2cnc(-c3ccc(OC4CC(F)(F)C4)cc3)cn12 [Compound 37, 6-[4-(3,3-difluorocyclobutoxy)phenyl]-3-[ethoxy(difluoro)methyl]-[1,2,4]triazolo[4,3-a]pyrazine] cannot be ordered by inhibition at 1 µM: greater than 70% for the first, greater than 70% for the second.

Compared with CCc1cc(OC(F)(F)F)ccc1-c1cn2c(C(F)(F)OC)nnc2cn1 [Compound 26, 3-[difluoro(methoxy)methyl]-6-[2-ethyl-4-(trifluoromethoxy)phenyl]-[1,2,4]triazolo[4,3-a]pyrazine], COC(F)(F)c1nnc2cnc(-c3ccc(OC(F)(F)F)cc3COC3CC3)cn12 [Compound 35, 6-[2-(cyclopropoxymethyl)-4-(trifluoromethoxy)phenyl]-3-[difluoro(methoxy)methyl]-[1,2,4]triazolo[4,3-a]pyrazine] is lower in inhibition at 1 µM: greater than 70% for the first, 30 to 70% for the second.

COC(F)(F)c1nnc2cnc(-c3ccc(OC(F)(F)F)cc3C3CC3)cn12 [Compound 33, 6-[2-cyclopropyl-4-(trifluoromethoxy)phenyl]-3-[difluoro(methoxy)methyl]-[1,2,4]triazolo[4,3-a]pyrazine] and CCOC(F)(F)c1nnc2cnc(-c3ccc(OC(F)(F)F)cc3C3CC3)cn12 [Compound 34, 6-[2-cyclopropyl-4-(trifluoromethoxy)phenyl]-3-[ethoxy(difluoro)methyl]-[1,2,4]triazolo[4,3-a]pyrazine] cannot be ordered by inhibition at 1 µM: greater than 70% for the first, greater than 70% for the second.

First: CCOC(F)(F)c1nnc2cnc(-c3ccc(OC(F)(F)F)cc3COC3CC3)cn12 [Compound 36, 6-[2-(cyclopropoxymethyl)-4-(trifluoromethoxy)phenyl]-3-[ethoxy(difluoro)methyl]-[1,2,4]triazolo[4,3-a]pyrazine]
Second: CCOC(C)(C)c1nnc2cnc(-c3ccc(OC(F)(F)F)cc3C)cn12 [Compound 41, 3-(1-ethoxy-1-methyl-ethyl)-6-[2-methyl-4-(trifluoromethoxy)phenyl]-[1,2,4]triazolo[4,3-a]pyrazine]
The inhibition at 1 µM of the first is higher: 30 to 70% for the first, less than 30% for the second.

First: CCOC(F)(F)c1nnc2cnc(-c3ccc(OC4CC(F)(F)C4)cc3C)cn12 [Compound 38, 6-[4-(3,3-difluorocyclobutoxy)-2-methyl-phenyl]-3-[ethoxy(difluoro)methyl]-[1,2,4]triazolo[4,3-a]pyrazine]
Second: COC(F)(F)c1nnc2cnc(-c3ccc(OC4CC(F)(F)C4)cc3C)cn12 [Compound 39, 6-[4-(3,3-difluorocyclobutoxy)-2-methyl-phenyl]-3-[difluoro(methoxy)methyl]-[1,2,4]triazolo[4,3-a]pyrazine]
The inhibition at 1 µM of the first is higher: greater than 70% for the first, 30 to 70% for the second.

COC(F)(F)c1nnc2cnc(-c3cc(F)c(OC(F)(F)F)cc3C)cn12 [Compound 40, 3-[difluoro(methoxy)methyl]-6-[5-fluoro-2-methyl-4-(trifluoromethoxy)phenyl]-[1,2,4]triazolo[4,3-a]pyrazine] and COC(F)(F)c1nnc2cnc(-c3cc(C)c(OC(F)(F)F)cc3F)cn12 [Compound 42, 3-[difluoro(methoxy)methyl]-6-[2-fluoro-5-methyl-4-(trifluoromethoxy)phenyl]-[1,2,4]triazolo[4,3-a]pyrazine] cannot be ordered by inhibition at 1 µM: greater than 70% for the first, greater than 70% for the second.

For COC(F)(F)c1nnc2cnc(-c3c(C)cc(OC(F)(F)F)cc3F)cn12 [Compound 43, 3-[difluoro(methoxy)methyl]-6-[2-fluoro-6-methyl-4-(trifluoromethoxy)phenyl]-[1,2,4]triazolo[4,3-a]pyrazine], the inhibition at 1 µM was 30 to 70%.
